Data from PubChem BioAssay AID2060331 (Molecular Pharmacology Branch, DTP, NCI, 2025).
pIC50: −log10 of the molar value.

Tested on: Hs578T multi-cell spheroids, viability
Assay: Anticancer human tumor Hs578T cell line growth inhibition [IpAb];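 further: drug exposure lasted 7 days before readout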
Details: for pIC50: curve of first compound; for viability, T/C: stronger effect = lower value
Description: Combinatorial screen of targeted agents with ipatasertib and abemaciclib in multi-cell type tumor spheroids
A high-throughput screen of multi-cell type tumor spheroids was designed to identify active combinations of targeted small molecules and ipatasertib or abemaciclib. Complex spheroids include a stromal component modeled by human endothelial cells (HUVEC) and fibroblasts modeled by human mesenchymal stem cells (MSCs). The concentration ranges selected for each drug and investigational agent were based upon clinically achievable concentrations if the clinical Cmax of the agent was known.
Compounds. The drugs and investigational agents: ipatasertib (NSC767898), abemaciclib(NSC768073), selumetinib (NSC741078), trametinib (758246), adavosertib (NSC754352), everolimus (NSC733504), sapanisertib (NSC764658), vemurafenib (NSC761431), venetoclax (NSC766270), copanlisib (NSC809693), apelisib (NSC765974), palbociblib (NSC758247), vemurafenib (NSC761431), dabrafenib (NSC764134), ravoxertinib (NSC781343), BMS-387032 (NSC767048), sotorasib (NSC818433), talazoparib (NSC767125) and afursertib (NSC778305), were obtained from the National Cancer Institute (NCI) Developmental Therapeutics Program Chemical Repository. The FDA-approved anticancer drug set is available from the NCI Developmental Therapeutics Program. […] The stock solutions were prepared in dimethyl sulfoxide (DMSO, Sigma-Aldrich, St. Louis, MO, cat. D2650) at 800-fold the tested concentration and stored at -70 degrees C prior to their use. All drugs and investigational agents were tested over a range starting from a high concentration at or near the clinical Cmax and decreasing in half-log increments. If the clinical Cmax for an agent had not been determined, the highest concentration tested was 10 microM.
NCI60 Cell Culture. NCI60 cell lines were obtained from the NCI Developmental Therapeutics Program Tumor Repository. For each lot of cells, the Repository performed Applied Biosystems AmpFLSTR Identifiler testing with PCR amplification to confirm consistency with the published Identifier STR profile for each cell line. Cells were kept in continuous culture for no more than 20 passages. The optimal seeding densities for each of the cell lines at each time point assessed were determined prior to performing the concentration response studies. Briefly, the NCI60 human tumor lines were grown as monolayers in RPMI 1640 medium supplemented with 10% FBS and 2 mmol/L L-glutamine.
An additional 9 lines were from the NCI60 cell line panel including MDA-MB-231 breast carcinoma, MDA-MB-468 breast carcinoma, MCF7 breast carcinoma, Hs578T breast carcinoma, MALME-3M melanoma, SK-MEL-2 melanoma, SK-OV-3 ovarian carcinoma, DU-145 prostate carcinoma, PC-3 prostate carcinoma, all cell lines along with major genetic alterations are listed on Table 2. Pooled donor human umbilical vein endothelial cells (HUVEC, Lonza, cat. CC-2519) and human mesenchymal stem cells (hMSC, Lonza, cat. PT-2501) were purchased from Lonza (Walkersville, MD).
PDMR cell lines were grown in complete medium (DC medium): Dulbecco's modified Eagle's medium (DMEM)/F12 supplemented with 5% fetal bovine serum (FBS), 2 mM L-glutamine, 100 U/mL penicillin and 100 µg/ml streptomycin, 0.4 µg/ml hydrocortisone, 10 ng/ml epidermal growth factor (EGF) recombinant human protein, 24 µg/mL adenine, and 0.1 mg/mL primocin. During culture from frozen stock vials, PDMR cells were cultured in the same medium containing 10 µM Y-27632 (see Table 3). The PDCs were cultured in complete DMEM/F12 media without 10 microM Y-27632 dihydrochloride for at least two passages prior to the screen. The pooled donor HUVEC and hMSC were cultured in endothelial cell growth medium 2 (PromoCell, Heidelberg, Germany, cat. C-22011) and mesenchymal stem cell growth medium 2 (PromoCell, cat. C-28009), respectively. For all experiments, HUVEC and hMSC were used at passages </=5.
[…]

[1] = second compound 0.1 µM, first compound 0.0316 µM
[2] = second compound 0.1 µM, first compound 0.1 µM
[3] = second compound 0.1 µM, first compound 0.316 µM
[4] = second compound 0.1 µM, first compound 1 µM
[5] = second compound 0.1 µM, first compound 3.16 µM
[6] = second compound 0.1 µM, first compound 10 µM
[7] = second compound 0.316 µM, first compound 0.0316 µM
[8] = second compound 0.316 µM, first compound 0.1 µM
[9] = second compound 0.316 µM, first compound 0.316 µM
[10] = second compound 0.316 µM, first compound 1 µM
[11] = second compound 0.316 µM, first compound 3.16 µM
[12] = second compound 0.316 µM, first compound 10 µM
[13] = second compound 1 µM, first compound 0.0316 µM
[14] = second compound 1 µM, first compound 0.1 µM
[15] = second compound 1 µM, first compound 0.316 µM
[16] = second compound 1 µM, first compound 1 µM
[17] = second compound 1 µM, first compound 3.16 µM
[18] = second compound 1 µM, first compound 10 µM
[19] = second compound 3.16 µM, first compound 0.0316 µM
[20] = second compound 3.16 µM, first compound 0.1 µM
[21] = second compound 3.16 µM, first compound 0.316 µM
[22] = second compound 3.16 µM, first compound 1 µM
[23] = second compound 3.16 µM, first compound 3.16 µM
[24] = second compound 3.16 µM, first compound 10 µM
[25] = second compound 10 µM, first compound 0.0316 µM
[26] = second compound 10 µM, first compound 0.1 µM
[27] = second compound 10 µM, first compound 0.316 µM
[28] = second compound 10 µM, first compound 1 µM
[29] = second compound 10 µM, first compound 3.16 µM
[30] = second compound 10 µM, first compound 10 µM

Row | SMILES | pIC50 (second compound 0.1 µM) | pIC50 (second compound 0.316 µM) | pIC50 (second compound 1 µM) | pIC50 (second compound 3.16 µM) | pIC50 (second compound 10 µM) | viability, T/C [1] [%] | viability, T/C [2] [%] | viability, T/C [3] [%] | viability, T/C [4] [%] | viability, T/C [5] [%] | viability, T/C [6] [%] | viability, T/C [7] [%] | viability, T/C [8] [%] | viability, T/C [9] [%] | viability, T/C [13] [%] | viability, T/C [14] [%] | viability, T/C [19] [%] | viability, T/C [20] [%] | viability, T/C [25] [%] | viability, T/C [26] [%] | other results
1 | C=CCn1c(=O)c2cnc(Nc3ccc(N4CCN(C)CC4)cc3)nc2n1-c1cccc(C(C)(C)O)n1 + CC(C)NCC(C(=O)N1CCN(c2ncnc3c2C(C)CC3O)CC1)c1ccc(Cl)cc1 | 6.55 | 6.66 | 6.89 | 7.40 | > 7.50 | 103 | 74.2 | 49.4 | 26.9 | 20.5 | 19.2 | 74.1 | 62.9 | 44.3 | 64.9 | 54.7 | 51.2 | 44.4 | 49.2 | 37.2 | viability, T/C [10]: 27.6%; viability, T/C [11]: 22.8%; viability, T/C [12]: 16.7%; viability, T/C [15]: 35.7%; viability, T/C [16]: 25.7%; viability, T/C [17]: 25.8%; viability, T/C [18]: 17.6%; viability, T/C [21]: 29.1%; viability, T/C [22]: 23.7%; viability, T/C [23]: 20.5%; viability, T/C [24]: 11.9%; viability, T/C [27]: 22.6%; viability, T/C [28]: 21%; viability, T/C [29]: 16.3%; viability, T/C [30]: 5.72%
2 | CC(C)n1nc(-c2ccc3oc(N)nc3c2)c2c(N)ncnc21 + CC(C)NCC(C(=O)N1CCN(c2ncnc3c2C(C)CC3O)CC1)c1ccc(Cl)cc1 | 8.23 | 8.45 | 8.86 | > 9.50 | > 9.50 | 19.9 | 15.5 |  |  |  |  | 14.2 | 11.8 |  | 14 | 12.2 | 12.2 | 10.4 | 11.4 | 8.97 | viability, T/C (second compound 0.1 µM, first compound 0.000316 µM): 94.8%; viability, T/C (second compound 0.1 µM, first compound 0.001 µM): 86.6%; viability, T/C (second compound 0.1 µM, first compound 0.00316 µM): 63.7%; viability, T/C (second compound 0.1 µM, first compound 0.01 µM): 38.6%; viability, T/C (second compound 0.316 µM, first compound 0.000316 µM): 79.2%; viability, T/C (second compound 0.316 µM, first compound 0.001 µM): 72.4%; viability, T/C (second compound 0.316 µM, first compound 0.00316 µM): 50.8%; viability, T/C (second compound 0.316 µM, first compound 0.01 µM): 30.7%; viability, T/C (second compound 1 µM, first compound 0.000316 µM): 61.7%; viability, T/C (second compound 1 µM, first compound 0.001 µM): 55.3%; viability, T/C (second compound 1 µM, first compound 0.00316 µM): 37.2%; viability, T/C (second compound 1 µM, first compound 0.01 µM): 20.7%; viability, T/C (second compound 3.16 µM, first compound 0.000316 µM): 47.4%; viability, T/C (second compound 3.16 µM, first compound 0.001 µM): 41.4%; viability, T/C (second compound 3.16 µM, first compound 0.00316 µM): 28.4%; viability, T/C (second compound 3.16 µM, first compound 0.01 µM): 17.3%; viability, T/C (second compound 10 µM, first compound 0.000316 µM): 48.1%; viability, T/C (second compound 10 µM, first compound 0.001 µM): 35.9%; viability, T/C (second compound 10 µM, first compound 0.00316 µM): 25.4%; viability, T/C (second compound 10 µM, first compound 0.01 µM): 12%
3 | CC1(C)CCC(CN2CCN(c3ccc(C(=O)NS(=O)(=O)c4ccc(NCC5CCOCC5)c([N+](=O)[O-])c4)c(Oc4cnc5[nH]ccc5c4)c3)CC2)=C(c2ccc(Cl)cc2)C1 + CC(C)NCC(C(=O)N1CCN(c2ncnc3c2C(C)CC3O)CC1)c1ccc(Cl)cc1 | 5.25 | 5.29 | 5.42 | 5.81 | > 7.50 | 97.1 | 96.7 | 101 | 95.3 | 83 | 15.7 | 79.9 | 90.2 | 89.2 | 66.9 | 66.5 | 53.3 | 54.3 | 46.7 | 46.9 | viability, T/C [10]: 81.9%; viability, T/C [11]: 77.1%; viability, T/C [12]: 13.5%; viability, T/C [15]: 66.4%; viability, T/C [16]: 63%; viability, T/C [17]: 58.2%; viability, T/C [18]: 11.1%; viability, T/C [21]: 51.3%; viability, T/C [22]: 53.4%; viability, T/C [23]: 45.9%; viability, T/C [24]: 10.2%; viability, T/C [27]: 46.8%; viability, T/C [28]: 42.3%; viability, T/C [29]: 40.9%; viability, T/C [30]: 5.27%
4 | CCCS(=O)(=O)Nc1ccc(F)c(C(=O)c2c[nH]c3ncc(-c4ccc(Cl)cc4)cc23)c1F + CC(C)NCC(C(=O)N1CCN(c2ncnc3c2C(C)CC3O)CC1)c1ccc(Cl)cc1 | 5.33 | 5.44 | 5.50 | 5.87 | > 7.50 | 97.9 | 95.8 | 92.3 | 89.9 | 71.2 | 9.19 | 94.8 | 83.4 | 88.3 | 69.2 | 71.2 | 56.5 | 57.8 | 48.3 | 45.1 | viability, T/C [10]: 82.6%; viability, T/C [11]: 55.3%; viability, T/C [12]: 7.94%; viability, T/C [15]: 74.1%; viability, T/C [16]: 68.1%; viability, T/C [17]: 50.1%; viability, T/C [18]: 4.41%; viability, T/C [21]: 51%; viability, T/C [22]: 55.3%; viability, T/C [23]: 35.8%; viability, T/C [24]: 2.97%; viability, T/C [27]: 49.5%; viability, T/C [28]: 38.6%; viability, T/C [29]: 27.5%; viability, T/C [30]: 0.51%
